{"source": "patent US7776527B2", "about": "“Methods and compositions for reducing microbial induced apoptosis” (The Regents of the University of California, priority 2003, dated 2010)", "key": {"PKR−/− BMDMs": {"system": "PKR−/− BMDMs", "format": "cell-based, mouse", "protocol": "A. Bone marrow derived macrophages (BMDMs) from PKR+/+ and PKR−/− mice were left untreated or treated with LPS plus SB202190 or LT (2.5 μg/ml PA+500 ng/ml LF), 15-deoxy-12,14-prostaglandin J2 (5 μM), or doxorubicin (10 μg/ml), as indicated. After 16 hrs, the cells were stained with Hoechst 33258 (blue) or annexin V-Alexa568 (red). […] (FIG. 9a) B. Bone marrow derived macrophages (BMDMs) from PKR+/+ or PKR−/− mice were incubated with LPS for various time periods (in days) and analyzed by TUNEL staining to determine the extent of apoptosis. […] (FIG. 9b)"}, "[1]": {"system": "bone marrow derived macrophages (BMDMs)", "format": "cell-based, mouse", "settings": "for apoptotic response of BMDMs: C57BL/6J BMDMs"}, "[2]": {"system": "J774A.1 macrophage-like cells", "assay": "Nucleosomal DNA ladder in J774A.1 cells incubated with LPS plus SB202190 and pan-caspase inhibitor", "format": "cell-based", "settings": "inhibitor 10, 100, 200 μM, 18 hrs", "protocol": "A. J774A.1 macrophage-like cells were incubated with LPS plus SB202190 (10 μM) whereas NIH3T3 fibroblasts were incubated with mouse TNF-α (10 ng/ml) plus cycloheximide (25 μg/ml). At the indicated time points cell lysates were prepared and analyzed by immunoblotting with antibodies specific to caspase-8. (FIG. 8a) B. J774A.1 macrophage-like cells were incubated with LPS plus SB202190 (10 μm), whereas NIH3T3 fibroblasts were incubated with mouse TNF-α (10 ng/ml) plus cycloheximide (25 μg/ml). At the indicated time points cell lysates were prepared and analyzed by immunoblotting with antibodies specific to caspase-3. (FIG. 8b) C. J774A.1 macrophage-like cells were incubated with or without LPS in the absence or presence of SB202190. When indicated, increasing concentrations (10, 100, and 200 μM) of a pan-caspase inhibitor (ZVAD-FMK) were added. After 18 hrs, genomic DNA was isolated and analyzed by agarose gel electrophoresis and EtBr staining for appearance of nucleosomal ladders indicative of apoptosis. (FIG. 8c)"}, "[3]": {"system": "IKKβ-deficient macrophages", "assay": "TUNEL apoptosis of IKKβ-deficient macrophages treated with TLR agonists or TNF-α", "format": "cell-based, mouse", "settings": "without p38 inhibition, 12 hrs", "protocol": "Bone marrow derived macrophages from Ikkβ F/F (IKKβ+/+) or MX1Cre-Ikkβ F/F (IKKβ−/−) mice were untreated or treated with LPS (100 ng/ml), LTA from B. subtilis (10 μg/ml), poly(IC) (10 μg/ml), SBLP (Pam3CSK4, 1 μg/ml), CpG-containing DNA (1 μM), and mouse TNF-α (10 ng/ml). After 12 hrs, apoptotic cell death was quantitated by TUNEL staining. Inset, macrophage lysates were analyzed by immunoblotting with antibodies specific to IKKβ and p38. (FIG. 2e)"}, "PKR": {"target": "T1, PKR (Mus musculus, UniProt Q03963)", "T1 construct": "endogenous in cells; host or cells: wild-type mouse bone marrow derived macrophages (BMDMs)", "T1 sequence (Q03963 1-515)": "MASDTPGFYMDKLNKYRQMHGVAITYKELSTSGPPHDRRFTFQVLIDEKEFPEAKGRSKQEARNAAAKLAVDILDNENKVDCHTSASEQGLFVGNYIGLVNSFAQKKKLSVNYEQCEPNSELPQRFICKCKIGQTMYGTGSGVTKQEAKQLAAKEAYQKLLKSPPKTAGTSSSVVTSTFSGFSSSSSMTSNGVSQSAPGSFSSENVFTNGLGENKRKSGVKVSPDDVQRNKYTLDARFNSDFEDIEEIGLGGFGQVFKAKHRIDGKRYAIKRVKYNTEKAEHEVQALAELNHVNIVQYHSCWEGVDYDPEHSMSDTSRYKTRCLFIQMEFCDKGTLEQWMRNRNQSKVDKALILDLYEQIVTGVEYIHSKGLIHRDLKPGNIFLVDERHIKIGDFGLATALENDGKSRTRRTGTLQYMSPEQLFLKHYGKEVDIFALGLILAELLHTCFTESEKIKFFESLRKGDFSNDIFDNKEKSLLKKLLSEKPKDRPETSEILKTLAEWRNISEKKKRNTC", "assay": "PKR activation by autophosphorylation and eIF2α phosphorylation in macrophages", "format": "cell-based", "settings": "for PKR activation (autophosphorylation, eIF2α phosphorylation): wt macrophages", "protocol": "Whole cell extracts were prepared and PKR activity was measured by autophosphorylation (Gusella et al. J Immunol 154, 345-54, 1995) after immunoprecipitation with anti-PKR antibody (Santa Cruz).\nPhosphorylation of eIF2α was detected by immunoblotting with antibody against phosphorylated eIF2α (Biosource, Camarillo, Calif.). The same blot was stripped and probed with antibody against total eIF2αIKK and MAPK activation were measured as described (Park et al. Science 297, 2048-51, 2002). Phosphorylation of STAT1 (Medzhitov et al. Nature 388, 394-7 (1997) was monitored by immunoblotting with anti-phospho-STAT1 antibody (Cell Signaling, Beverly, Mass.).\nBone marrow derived macrophages (BMDMs) (wt) were stimulated with LPS (100 ng/ml) or poly(IC) (10 μg/ml) or left unstimulated. At the indicated time points cells were lysed and PKR activation was monitored by autophosphorylation. Gel loading was controlled by immunoblotting for PKR. The same lysates were monitored for eIF-2α phosphorylation by immunoblotting with antibodies specific for phosphorylated eIF-2a (P-eIF-2α) and total eIF-2α (FIG. 3a)"}, "S. typhimurium": {"system": "S. typhimurium", "assay": "Systemic S. typhimurium infection of mice pretreated with poly(IC)", "format": "in vivo", "protocol": "Mice (7-10 weeks old) were injected i.p. with either PBS or 200-300 μg poly(IC) in PBS. After 20 hrs, mice were injected i.p. with 10^6 S. typhiumurium 14028 in PBS. Mice that were still alive were sacrificed after 24 hrs and their spleens removed. For certain experiments, tissue was homogenized in PBS+0.1% Triton X-100. To determine bacterial counts, tissue homogenates were diluted in PBS and plated on LB agar and colonies were counted after overnight incubation at 37° C.\nB. Mice (wt and PKR−/−) were Injected i.p. with PBS or 200-300 μg Poly(IC) in PBS\nAfter 20 hrs the mice were injected i.p. with 10^6 S. typhimurium (14028) bacteria suspended in PBS. After 24 hrs, survival was monitored and mice that were still alive were sacrificed and the numbers of live bacteria within their spleens determined. * represents p=0.007. (FIG. 7b)\nC. Mice were Treated as Above and Parts of their Spleens Analyzed for the Presence Of Apoptotic Cells by TUNEL Staining\nPhotograph was taken from the splenic red pulp where macrophages reside. (FIG. 7c)"}, "[4]": {"system": "bone marrow derived macrophages (BMDMs)", "format": "cell-based, mouse", "settings": "BMDMs preincubated with poly(IC) 6 hrs before infection"}, "A1/Bfl1": {"system": "A1/Bfl1", "assay": "Immunoblotting of A1/Bfl1 and cIAP-1 after poly(IC) transfection and LPS", "format": "cell-based, mouse", "settings": "wt BMDMs, poly(IC) transfection followed by LPS", "protocol": "PKR+/+ and PKR−/− BMDMs were transfected with or without poly(IC) using Lipofectamine (Diebold et al. Nature 424, 324-328, 2003). After 6 hrs, LPS was added and the levels of A1/Bfl1 and cIAP-1 were examined by immunoblotting. (FIG. 5b)"}, "[5]": {"settings": "with p38 inhibition (SB202190 10 μM), 18 hrs"}}, "note": "Read-outs that look alike come from different tables or passages of the source. Peptide text beside a SMILES is read from it. * marks the point of attachment. Cbz = O=C(OCc1ccccc1)*; CH2F = FC*", "data": [{"compound": "CCCCCC=CC=C1C(=O)C=C[C@@H]1CC=CCCCC(=O)O", "note": "[15-deoxy-12,14-prostaglandin J2]", "values": [{"measurement": "apoptosis of PKR−/− BMDMs", "setting": "PKR−/− BMDMs", "result": "still underwent apoptosis"}]}, {"compound": "Oc1ccc(-c2nc(-c3ccncc3)c(-c3ccc(F)cc3)[nH]2)cc1", "note": "[SB202190]", "values": [{"measurement": "macrophage apoptosis induced by heat-inactivated B. anthracis", "setting": "[1]; in the presence of SB202190 (10 μM), 18 hrs, TUNEL", "result": "extensive macrophage apoptosis"}]}, {"compound": "C[C@@H]1C[C@@H]([C@H](O)CC2CC(=O)NC(=O)C2)C(=O)[C@@H](C)C1", "note": "[cycloheximide]", "values": [{"measurement": "apoptosis on mere incubation", "setting": "[1]; wt or PKR−/− BMDMs, cycloheximide 10 μg/ml", "result": "triggered apoptosis"}]}, {"compound": "COc1cccc2c1C(=O)c1c(O)c3c(c(O)c1C2=O)C[C@@](O)(C(=O)CO)C[C@@H]3O[C@H]1C[C@H](N)[C@H](O)[C@H](C)O1", "note": "[doxorubicin]", "values": [{"measurement": "apoptosis of PKR−/− BMDMs", "setting": "PKR−/− BMDMs; PKR−/− BMDMs, 16 hrs, annexin V", "result": "still underwent apoptosis"}]}, {"compound": "COC(=O)C[C@H](NC(=O)[C@H](C)NC(=O)[C@@H](NC(=O)OCc1ccccc1)C(C)C)C(=O)CF", "note": "[pan-caspase inhibitor, ZVAD-FMK] (Cbz-Val-Ala-Asp(OMe)-CH2F)", "values": [{"measurement": "effect on LPS-induced macrophage apoptosis", "setting": "[2]", "result": "apoptosis was inhibited"}]}, {"compound": "Pam3CSK4 [SBLP]", "values": [{"measurement": "apoptotic response of BMDMs", "setting": "[1]; [5]", "result": "Little apoptosis"}]}, {"compound": "TNF-α", "values": [{"measurement": "apoptosis of IKKβ-deficient macrophages", "setting": "[3]", "result": "underwent apoptosis"}]}, {"compound": "lipopolysaccharide [LPS]", "values": [{"measurement": "PKR activation (autophosphorylation, eIF2α phosphorylation)", "setting": "PKR", "result": "rapidly activated"}, {"measurement": "apoptotic response of BMDMs", "setting": "[1]; [5]", "result": "strong apoptotic response"}, {"measurement": "apoptosis on prolonged incubation", "setting": "[1]; wt BMDMs, without p38 inhibition, prolonged incubation (days)", "result": "resulted in apoptosis"}, {"measurement": "apoptosis of IKKβ-deficient macrophages", "setting": "[3]", "result": "underwent apoptosis"}]}, {"compound": "lipoteichoiec acid [LTA]", "values": [{"measurement": "apoptosis of IKKβ-deficient macrophages", "setting": "[3]", "result": "underwent apoptosis"}]}, {"compound": "poly(IC)", "values": [{"measurement": "enhancement of bacterial load, apoptosis or mortality", "setting": "S. typhimurium; PKR−/− mice, poly(IC) pretreatment", "result": "little enhancement"}, {"measurement": "number of apoptotic cells in the red pulp of the spleens", "setting": "S. typhimurium; S. typhimurium infected wt mice, poly(IC) pretreatment", "result": "increased the number of apoptotic cells"}, {"measurement": "increase in number of live bacteria recovered from the spleen", "setting": "S. typhimurium; wt mice, 200-300 μg poly(IC) i.p. before S. typhimurium, 24 hrs", "result": 3.5, "unit": "fold"}, {"measurement": "mortality caused by S. typhimurium infection", "setting": "S. typhimurium; wt mice, poly(IC) pretreatment", "result": "increased the mortality"}, {"measurement": "PKR activity after transfection versus simple addition to culture medium", "setting": "PKR; poly(IC) introduced by transfection (lipofectamine)", "result": "higher levels of PKR activity"}, {"measurement": "PKR activation (autophosphorylation, eIF2α phosphorylation)", "setting": "PKR", "result": "rapidly activated"}, {"measurement": "apoptotic response of BMDMs", "setting": "[1]; without p38 inhibition, 18 hrs", "result": "weak apoptotic response"}, {"measurement": "apoptosis after transfection versus simple addition to culture medium", "setting": "[1]; poly(IC) transfection, LPS added 6 hrs later, 18 hrs", "result": "higher level of apoptosis"}, {"measurement": "sensitization of BMDMs to LPS-induced apoptosis", "setting": "[1]; with LPS, without SB202190", "result": "renders BMDMs susceptible to LPS-induced apoptosis"}, {"measurement": "effect on apoptosis in response to live S. typhimurium or Y. pseudotuberculosis", "setting": "[4]", "result": "potentiated apoptosis"}, {"measurement": "apoptosis of IKKβ-deficient macrophages", "setting": "[3]", "result": "more susceptible"}, {"measurement": "accumulation of A1/Bfl1", "setting": "A1/Bfl1", "result": "inhibited the accumulation"}]}]}
